Earlier results, collected in paper PMC7168327, “Designed Antimicrobial Peptides for Topical Treatment of Antibiotic Resistant Acne Vulgaris” (Antibiotics, 2020).

Experiments:
Conditions in all cases: cited from earlier work
[1] = tested on: C. acnes HL013PA1
Source text: (§1) Table 1 Growth Inhibition of dAMPs (MICs, µg/mL) against C. acnes Isolates. | column: Antibiotic Sensitivity / Tetra ^#; Antibiotic Sensitivity / Ery ^#; Antibiotic Sensitivity / Clind ^#

[2] = tested on: C. acnes HL053PA1
Source text: as §1

[3] = tested on: C. acnes HL043PA1
Source text: as §1

[4] = tested on: C. acnes HL043PA2
Source text: as §1

[5] = tested on: C. acnes ATCC6919
Source text: as §1

[6] = tested on: C. acnes ATCC11827
Source text: as §1

[7] = tested on: C. acnes HL072PA1
Source text: as §1

[8] = tested on: C. acnes HL045PA1
Source text: as §1

[9] = tested on: C. acnes HL038PA1
Source text: as §1

[10] = tested on: C. acnes HL082PA2
Source text: as §1

[11] = tested on: C. acnes HL056PA1
Source text: as §1

[12] = tested on: C. acnes HL007PA1
Source text: as §1

Structure (SMILES): CN(C)[C@@H]1C(O)=C(C(N)=O)C(=O)[C@@]2(O)C(O)=C3C(=O)c4c(O)cccc4[C@@](C)(O)[C@H]3C[C@@H]12 [Tetra, tetracycline]
- Antibiotic Sensitivity, Tetra [1]: R (resistance to tetracycline (Tetra), MIC ≥ 1.0 μg/mL)
- Antibiotic Sensitivity, Tetra [2]: R (resistance to tetracycline (Tetra), MIC ≥ 1.0 μg/mL)
- Antibiotic Sensitivity, Tetra [3]: R (resistance to tetracycline (Tetra), MIC ≥ 1.0 μg/mL)
- Antibiotic Sensitivity, Tetra [4]: R (resistance to tetracycline (Tetra), MIC ≥ 1.0 μg/mL)
- Antibiotic Sensitivity, Tetra [5]: S (S, sensitive)
- Antibiotic Sensitivity, Tetra [6]: S (S, sensitive)
- Antibiotic Sensitivity, Tetra [7]: R (resistance to tetracycline (Tetra), MIC ≥ 1.0 μg/mL)
- Antibiotic Sensitivity, Tetra [8]: R (resistance to tetracycline (Tetra), MIC ≥ 1.0 μg/mL)
- Antibiotic Sensitivity, Tetra [9]: R (resistance to tetracycline (Tetra), MIC ≥ 1.0 μg/mL)
- Antibiotic Sensitivity, Tetra [10]: R (resistance to tetracycline (Tetra), MIC ≥ 1.0 μg/mL)
- Antibiotic Sensitivity, Tetra [11]: R (resistance to tetracycline (Tetra), MIC ≥ 1.0 μg/mL)
- Antibiotic Sensitivity, Tetra [12]: R (resistance to tetracycline (Tetra), MIC ≥ 1.0 μg/mL)

Structure (SMILES): CCC[C@@H]1C[C@@H](C(=O)N[C@@H]([C@H]2O[C@H](SC)[C@H](O)[C@@H](O)[C@H]2O)[C@H](C)Cl)N(C)C1 [Clind, clindamycin]
- Antibiotic Sensitivity, Clind [1]: R (Antibiotic resistance to clindamycin defined by MIC ≥ 32 μg/mL)
- Antibiotic Sensitivity, Clind [2]: R (Antibiotic resistance to clindamycin defined by MIC ≥ 32 μg/mL)
- Antibiotic Sensitivity, Clind [3]: R (Antibiotic resistance to clindamycin defined by MIC ≥ 32 μg/mL)
- Antibiotic Sensitivity, Clind [4]: R (Antibiotic resistance to clindamycin defined by MIC ≥ 32 μg/mL)
- Antibiotic Sensitivity, Clind [5]: S (S, sensitive)
- Antibiotic Sensitivity, Clind [6]: S (S, sensitive)
- Antibiotic Sensitivity, Clind [7]: R (Antibiotic resistance to clindamycin defined by MIC ≥ 32 μg/mL)
- Antibiotic Sensitivity, Clind [8]: R (Antibiotic resistance to clindamycin defined by MIC ≥ 32 μg/mL)
- Antibiotic Sensitivity, Clind [9]: R (Antibiotic resistance to clindamycin defined by MIC ≥ 32 μg/mL)
- Antibiotic Sensitivity, Clind [10]: S (S, sensitive)
- Antibiotic Sensitivity, Clind [11]: R (Antibiotic resistance to clindamycin defined by MIC ≥ 32 μg/mL)
- Antibiotic Sensitivity, Clind [12]: R (Antibiotic resistance to clindamycin defined by MIC ≥ 32 μg/mL)
